Data from paper PMC2974656, “Selective killing of human immunodeficiency virus infected cells by non-nucleoside reverse transcriptase inhibitor-induced activation of HIV protease” (Retrovirology, 2010).

Legend:
HIV-1IIIB = experiment: Direct antiviral activity: MT4-LTR-EGFP cells infected with HIV-1IIIB, EGFP fluorescence; assay type: cell-based; details: MT4-LTR-EGFP cells, HIV-1IIIB MOI 0.01, 3 days; mean ± SD of three or more measurements; read-out: Inhibition of HIV replication in vitro EC50
Method: After 3 days of incubation, infected cells were quantified by determination of total EGFP fluorescence per well based on microscopy and subsequent image analysis. Threshold values were determined from the average pixel value plus 6 standard deviations from the uninfected control wells, and the median threshold from all control wells on a plate was defined as baseline GFP expression. Intensity values for the sample wells were then determined by subtracting the background threshold from each pixel value obtained from the image of the respective well and calculating the sum of net pixel intensities. Percent inhibition was calculated as 100 * (1 - (Sample - CC)/(VC - CC)).

[1] = test system: MT4-LTR-EGFP-IIIB HIV-1 producing cells; experiment: in vitro; assay type: cell-based
Method: The cytotoxicity of inhibitors was determined in parallel on MT4-CMV-EGFP control cells and on MT4-LTR-EGFP-IIIB virus producing cells, respectively.

MT4-LTR-EGFP-IIIB cells = assay type: cell-based; details: 1 μM, 6 days, trypan blue
Excerpt: (§1) In MT4-LTR-EGFP-IIIB cells, HIV expression could additionally be detected through long terminal repeat (LTR) driven expression of the gfp marker gene. As a control we used uninfected MT-4 cells or MT4-CMV-EGFP cells, constitutively expressing EGFP from a CMV promoter, respectively.
(§2) Cell lysates were harvested and analyzed by immunoblot using antiserum raised against HIV-1 CA. Positions of Gag and Gag-Pol processing products are marked at the right, molecular mass standards are indicated to the left (in kDa). […] Live cells were counted after trypan blue staining. Data represent mean values and standard deviations from three parallel cultures.

[2] = test system: MT4-LTR-EGFP parental cells; details: 1 μM, 6 days, trypan blue
Excerpt: as §1, §2

[3] = test system: Gag processing in MT-4-IIIB cells; experiment: Immunoblot of Gag processing in chronically infected MT-4 cells; assay type: cell-based, HIV-1; details: 1 μM, day 2 post addition

## NS(=O)(=O)c1ccc(NC(=O)CSc2nnc(Br)n2-c2ccc(C3CC3)c3ccccc23)c(Cl)c1 [VRX-480773]
HIV-1IIIB
  EC50: 1.6 ± 0.81 nM
[1]; 4 days, no DRV, mean ± SD, tested up to 10 μM, read-out: Cytotoxicity on MT4-LTR-EGFP-IIIB HIV-1 producing cells CC50
  CC50: 680 ± 340 nM
[1]; summary of Table 1
  Cytotoxicity on MT4-LTR-EGFP-IIIB cells, in words: submicromolar range
MT4-LTR-EGFP-IIIB cells
  Live cell numbers, HIV infected MT4-LTR-EGFP-IIIB cells: significant decrease
[2]
  Number of uninfected control cells: remained constant
[3]
  NNRTI mediated enhancement of Gag processing in virus producing cells: decreased ratio of Gag to intermediate and fully mature processing products
